Test results published in article PMC10518717, “High-Throughput Screening and Proteomic Characterization of Compounds Targeting Myeloid-Derived Suppressor Cells” (Molecular & Cellular Proteomics : MCP, 2023).

Tested on: NUP-MDSC
Assay: Global proteome expression profiling of compound-treated NUP-MDSC (TMT LC-MS/MS)
Format: cell-based, mouse
Conditions: for log2 FC cmpd2/cmpd3: cmpd2 versus cmpd3, NUP-MDSC; for normalized reporter intensities R1: replicate R1, compound-treated NUP-MDSC; for normalized reporter intensities R3: replicate R3, compound-treated NUP-MDSC
Description: After treatments, medium was removed, cells were washed twice with PBS, and the cell pellets were further subjected to proteomic sample preparation.
The cell pellet was reconstituted in 2% SDS in 50 mM Tris–HCl pH 7.5 and lysed by heating to 95 °C for 10 min. One microliter of 100% TFA was added to each sample to hydrolyze DNA, and the pH was subsequently adjusted to 8.5 with 3 M Tris solution. Disulfide bonds were reduced with 10 mM DTT for 45 min at 37 °C, followed by alkylation of cysteines with 55 mM CAA for 30 min at room temperature. Prior to tryptic digestion, the detergent was removed from lysates by SP3 cleanup on an Agilent BRAVO system (Agilent Technologies), following the protocol first described by Hughes et al. ([34]). Briefly, lysate containing 200 μg of protein was mixed with SP3 beads, and proteins were precipitated onto a 50:50 mixture of Sera-Mag Speed Bead types A and B (Thermo Fisher Scientific) in 58% acetonitrile. Beads were washed three times with 80% ethanol in water and once with acetonitrile. Tryptic digest was performed in 100 μl of digestion buffer (2 mM CaCl2 in 25 mM Hepes, pH 8.5) with a 1:50 enzyme-to-protein ratio. Bead-precipitated proteins were digested at 37 °C overnight. On the next day, the supernatant of each sample was transferred to a new well and vacuum dried.
Dried peptides were reconstituted in water and labeled with the respective TMT10plex-labeling reagent as described previously ([35]) with a protein to tandem mass tag (TMT) reagent ratio of 1:2. Labeled samples were pooled, vacuum dried, and reconstituted in 0.1% formic acid (FA) prior to desalting on SepPAC50 columns (waters corp.). Peptides were fractionated using a Dionex Ultra 3000 HPLC system with a Waters XBridge BEH130 C18 3.5 um 2.1 × 250 mm column as described previously ([36]). Ninety-six fractions were collected and pooled to 48. For the full proteome analysis, one fifth of each fraction was transferred to a new 96-well plate and both plates were vacuum dried. For the phosphopeptide analysis, dried peptides were reconstituted in 55 μl 0.1% TFA in 30% ACN, pooled from 48 to 12 fractions, and mixed with 70 μl priming buffer (0.1% TFA, 100% ACN). Phosphopeptides were enriched from each of the 12 fractions using Fe(III)-IMAC-NTA cartridges on the AssayMAP BRAVO (Agilent Technologies) platform as described previously ([36]). Phosphopeptides were eluted with 60 μl 1% ammonia, vacuum dried, and stored at −20 °C prior to LC-MS/MS analysis.
The Fusion Lumos was operated in data-dependent acquisition and positive ionization mode. Samples were measured employing a MS3 method. In brief, full scan MS1 spectra were recorded in the orbitrap (OT) from 360 to 1560 m/z at 60,000 resolution using an automatic gain control (AGC) target value of 4e5 charges and a maximum injection time (maxIT) of 50 ms. Iontrap-MS2 spectra for peptide identification were acquired using higher energy collision dissociation (HCD) fragmentation with 32% normalized collision energy (NCE), an isolation window of 0.6 m/z, and an AGC target value of 1.2e4 charges. To obtain quantitative information on TMT reporter ions, each peptide precursor was fragmented again as for MS2 analysis followed by synchronous selection of the up to eight most intense peptide fragments in the iontrap ([37]) and further fragmentation via HCD using a NCE of 55%. The MS3 scan was recorded in the OT at 50,000 resolution (scan range 100–1000 m/z, isolation window of 1.2 m/z, AGC of 1e5 charges, maxIT of 86 ms). The cycle time was 1.2 s, and the dynamic exclusion lasted for 50 s.
Peptide, protein, and phosphorylation site identification and quantification were performed with MaxQuant software (v. 1.6.3.3, https://www.maxquant.org/) with standard settings for reporter ion MS3 unless described otherwise ([39]). Isotope impurities of the TMT lot were specified to allow MaxQuant the automated correction of TMT intensities. […]

[1] = protein 0610011F06Rik / Mettl26 (Q9DCS2)
[2] = protein 0610037L13Rik / Czib (Q8BHG2)
[3] = protein Trappc2 (Q8R3W2;Q9CQP2)

Structure (SMILES): CCOC(=O)c1nnn(-c2nn3nnnc3c3ccccc23)c1C [compound 2]
- expression of proteins associated with detoxification by peroxiredoxin and further ROS-reducing proteins (Prdx1, Txnrd1, Srxn1, Cat, Nqo1, Blvrb) (3xEC50, 72 h, relative to compound 3 at 10 μM): upregulated
- log2 FC cmpd2/cmpd3 [1]: -0.03832
- normalized reporter intensities R1 [1]: 20.3044
- normalized reporter intensities R3 [1]: 20.1769
- log2 FC cmpd2/cmpd3 [2]: -0.06333
- normalized reporter intensities R1 [2]: 20.0663
- normalized reporter intensities R3 [2]: 19.9557
- log2 FC cmpd2/cmpd3 (protein Bap18 (D3Z687;Q9DCT6)): -0.2777
- normalized reporter intensities R1 (protein Bap18 (D3Z687;Q9DCT6)): 16.8475
- normalized reporter intensities R3 (protein Bap18 (D3Z687;Q9DCT6)): 16.9614
- log2 FC cmpd2/cmpd3 [3]: -0.004852
- normalized reporter intensities R1 [3]: 18.4905
- normalized reporter intensities R3 [3]: 18.3959

Structure (SMILES): c1ccc2c(c1)c(-n1ccnc1)nn1nnnc21 [compound 3]
- normalized reporter intensities R1 [1]: 20.3551
- normalized reporter intensities R3 [1]: 20.1713
- normalized reporter intensities R1 [2]: 20.1036
- normalized reporter intensities R3 [2]: 20.057
- normalized reporter intensities R1 (protein Bap18 (D3Z687;Q9DCT6)): 17.1673
- normalized reporter intensities R3 (protein Bap18 (D3Z687;Q9DCT6)): 17.2868
- normalized reporter intensities R1 [3]: 18.5332
- normalized reporter intensities R3 [3]: 18.3626
